Data: article PMC7377361, “Pressurized DNA state inside herpes capsids—A novel antiviral target” (PLoS Pathogens, 2020)
Where no end group is shown, it is not given here.

Legend:
HSV-1 C-capsids = experiment: Binding of GFP-HSV-1 C-capsids to nuclei of digitonin-permeabilized Vero cells (SR-SIM); type: cell-based
Description: This was verified with a fluorescently labeled nuclear localization signal (NLS), added to purified rat liver nuclei incubated with cytosolic extracts (as a source of soluble import factors) supplemented with an ATP regeneration system, see Supporting Materials for experimental description and S4A Fig. These controls were also reproduced with a digitonin-permeabilized cell assay, which accurately recapitulates capsid-nucleus binding and nuclear import in living cells; see Supporting Materials and data shown in S4B Fig. In agreement with observations in the isolated nuclei system (Fig 3B), we also confirmed via a digitonin-permeabilized cell assay that none of the three compounds interfered with capsid-NPC binding in cells. Attachment of GFP-capsids to nuclei was visualized with SR-SIM (S4C Fig). The addition of WGA prevented capsid binding, showing capsid-NPC binding specificity (S4C Fig).
To obtain cytosolic extracts as a source of soluble import factors, Vero cell monolayers (4 x 10^7 cells) were washed with ice-cold PBS and scraped off the plate into 5 ml of cold PBS. […] The samples were then processed for fluorescence imaging as described above. […]

free dsDNA = experiment: SAXS of free (bulk) DNA condensed by added compound; conditions: free dsDNA in TM-buffer, N/P ratio 1.5, 15, 23 and 37°C
Excerpt: To determine if our DNA condensing compounds target pressurized intracapsid DNA in HSV-1 virions, we developed a three-step SAXS assay. In the first step, we confirmed the ability of compounds DAB-Am-4, bPEI 600, and Arg^5+ to condense the dsDNA in solution. We measured DNA-DNA spacing (ds) in bulk DNA solution in TM-buffer (i.e. free DNA without the capsid), where DNA is condensed by the added compound. This bulk DNA ds-measurement allows for quick prescreening with an in-house SAXS to determine if compounds are capable of binding to dsDNA and reducing DNA-DNA spacing below the physiologic ds-value for DNA packaged in a viral capsid (ds* = 31Å for HSV-1). […] The Bragg spacing, dBr, and the actual distance between helices, ds, are related by ds = 2dBr/sqrt(3) (see details in Materials and Methods). […] Compound concentrations were scaled proportionally with DNA concentration in the sample to correspond to the N/P ratio of 1.5, where N provides the number of positively charged amine groups on the polyamine compound, and P provides the number of negatively charged phosphate groups on the DNA. An N/P ratio of ~1–1.5 was previously shown to be sufficient for DNA condensation with polycationic amines.
For bulk DNA measurements with in-house SAXS, concentrated polycation solutions were added to 1 mg/mL free DNA in small increments of concentration. […]

[1] = Cytotoxicity assay in uninfected HFF-1 cells; conditions: human
Description: In parallel, for each DNA condensing compound, we determined the cytotoxicity concentration (CC50 value) using standard in vitro cellular replication assays in human foreskin fibroblast (HFF) cells (used as a standard for herpesvirus replication in vitro assays for antiviral compound tests)[48]. Cytotoxicity assays were performed on a parallel set of six-well plates containing confluent monolayers of HFF-1 cells at the same cell amount as used for antiviral plaque reduction assays for EC50 value determination, but cells were uninfected[48].
Cytotoxicity assays were performed on a parallel set of six-well plates containing HFF-1 cells that received the same compound concentrations as used for the antiviral assays but remained uninfected. […]
Each compound was evaluated in a standard cytotoxicity assay by standard methods [100]. […] The optical density was then determined at 550 nm and CC50 values were interpolated from the experimental data.
The inhibition of either Vero cell or HFF-1 cell proliferation was used to refine estimates of cytotoxicity for the compounds and was performed according to standard procedures [101]. […] The plates were incubated for 72 h at 37°C; the cells were then dislodged with trypsin and counted on a Beckman Coulter Counter. […]

Description for MEF cell line: We also determined cytotoxicity in the murine MEF cell line, relevant to animal studies.

For `NCCCN(CCCN)CCCCN(CCCN)CCCN` [DAB-Am-4], which CC50 (HFF-1 cells) is on record?
Its CC50 is 15 µM.

And the “binding of GFP-HSV-1 C-capsids to nuclei of permeabilized cells” value (HSV-1 C-capsids)?
Its value is “not blocked”.

And the “DNA-DNA interaxial spacing ds” value (free dsDNA)?
The value was “below 31 Å”.

And the CC50 (MEF cell line)?
The CC50 was 22 µM.

Which results are given for RRRRR [Arg^5+]?
binding of GFP-HSV-1 C-capsids to nuclei of permeabilized cells (HSV-1 C-capsids): not blocked; DNA-DNA interaxial spacing ds (free dsDNA): below 31 Å; CC50 at 7 days [1]: 83 µM
